Measurements: patent publication US11655246B2, “Aminothiazole compounds as inhibitors of CTPS1” (STEP PHARMA S.A.S., priority 2017, dated 2023)
pIC50: −log10 of the molar value. Where “and” joins values, the source holds several entries; their conditions need not be identical. Equal values may be shown once. Where a name gives a salt, the structure may show the parent alone. Read-outs that look alike come from different tables or passages of the source.

Target: T1, human CTPS1 (Homo sapiens, UniProt P17812)
T1 construct: purchased Proteros biostructures GmbH
T1 sequence (P17812 1-591): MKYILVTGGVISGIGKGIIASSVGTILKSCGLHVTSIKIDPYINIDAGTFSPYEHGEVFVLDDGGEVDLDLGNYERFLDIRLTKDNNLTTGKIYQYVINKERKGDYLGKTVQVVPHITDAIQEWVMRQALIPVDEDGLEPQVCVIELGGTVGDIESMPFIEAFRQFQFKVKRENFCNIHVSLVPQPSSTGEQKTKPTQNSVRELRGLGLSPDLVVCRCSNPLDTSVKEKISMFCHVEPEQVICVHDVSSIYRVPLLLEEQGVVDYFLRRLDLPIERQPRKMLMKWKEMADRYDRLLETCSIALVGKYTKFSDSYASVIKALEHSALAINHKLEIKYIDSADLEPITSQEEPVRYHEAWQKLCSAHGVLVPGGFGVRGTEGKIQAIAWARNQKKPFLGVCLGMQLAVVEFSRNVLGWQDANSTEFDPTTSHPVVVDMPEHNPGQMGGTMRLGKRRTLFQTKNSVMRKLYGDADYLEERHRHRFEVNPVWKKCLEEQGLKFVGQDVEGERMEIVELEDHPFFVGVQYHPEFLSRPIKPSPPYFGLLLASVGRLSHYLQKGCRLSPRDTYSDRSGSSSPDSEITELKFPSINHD
Experiment: Human CTPS1 enzyme inhibition (ADP-Glo Max assay)
Type: biochemical
Conditions: read-out: CTPS1 (Human CTPS1 Enzyme Inhibition data grouped by potency range)
Procedure, shortened: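 ADP-Glo Max luminescence detection of ATP-to-ADP conversion by the enzyme, in 50 mM Tris, 10 mM MgCl2, 0.01% Tween-20, pH 8.0, with 2 mM L-cysteine added fresh. Enzyme preincubated with compound 10 minutes at 25° C. Percentage inhibition calculated per compound concentration.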

[1] = Table 18, additional potency data, 25° C.

| Structure (SMILES) | pIC50 [1] | pIC50 (Table 17, 25° C.) |
| --- | --- | --- |
| CC(C)(C(=O)Nc1ccc(-c2cncc(Cl)c2)cc1)c1csc(NS(C)(=O)=O)n1 [T393, N-(4-(5-chloropyridin-3-yl)phenyl)-2-methyl-2-(2-(methylsulfonamido)thiazol-4-yl)propanamide] | 6.00 to 7.00 |  |
| Cc1sc(NS(=O)(=O)C2CC2)nc1C(C)(C)C(=O)Nc1ccc(-c2cncc(C(F)(F)F)n2)cc1 [T17, 2-(2-(cyclopropanesulfonamido)-5-methylthiazol-4-yl)-2-methyl-N-(4-(6-(trifluoromethyl)pyrazin-2-yl)phenyl)propanamide] |  | 6.00 to 7.00 |
| CC(C)(C(=O)Nc1ccc(-c2cccc(Cl)c2)cc1)c1csc(NS(=O)(=O)C2CC2)n1 [T87] |  | 6.00 to 7.00 |
| CCC(C(=O)Nc1ccc(-c2cncc(C(F)(F)F)n2)cc1F)c1csc(NS(=O)(=O)C2CC2)n1 (single isomer, unassigned) [T458] | > 7.00 |  |
| CCC(C(=O)Nc1ccc(-c2cncc(OCC(F)(F)F)n2)cc1)c1csc(NS(=O)(=O)C2CC2)n1 (single isomer, unassigned) [T223] |  | > 7.00 |
| O=C(Nc1ccc(-c2cncc(C(F)(F)F)n2)cn1)C1CCc2sc(NS(=O)(=O)C3CC3)nc21 (stereo not shown) [T169] |  | 6.00 to 7.00 |
| CCC(C(=O)Nc1ccc(-c2cncc(OC(C)C)n2)cc1)c1csc(NS(=O)(=O)C2CC2)n1 (stereo not shown) [T76] |  | > 7.00 |
| NC(C(=O)Nc1ccc(-c2cncc(C(F)(F)F)n2)cn1)c1csc(NS(=O)(=O)C2CC2)n1 (stereo not shown) [T417, 2-Amino-2-(2-(cyclopropanesulfonamido)thiazol-4-yl)-N-(5-(6-(trifluoromethyl)pyrazin-2-yl)pyridin-2-yl)acetamide hydrochloride] | 6.00 to 7.00 |  |
| CCOc1cncc(-c2ccc(NC(=O)C(NC(=O)OC)c3csc(NS(=O)(=O)C4CC4)n3)cc2)n1 (stereo not shown) [T327, methyl (1-(2-(cyclopropanesulfonamido)thiazol-4-yl)-2-((4-(6-ethoxypyrazin-2-yl)phenyl)amino)-2-oxoethyl)carbamate] | > 7.00 |  |
| COC(C)(C)c1cncc(-c2ccc(NC(=O)C(C)(C)c3csc(NS(=O)(=O)C4CC4)n3)c(F)c2)n1 [T353, 2-(2-(cyclopropanesulfonamido)thiazol-4-yl)-N-(2-fluoro-4-(6-(2-methoxypropan-2-yl)pyrazin-2-yl)phenyl)-2-methylpropanamide] | 6.00 to 7.00 |  |
| CCOc1cncc(-c2ccc(NC(=O)C(C)c3csc(NS(=O)(=O)C4CC4)n3)cc2)c1 (stereo not shown) [T94] |  | > 7.00 |
| CCC(C(=O)Nc1ccc(-c2cncc(OCC(F)(F)F)n2)cc1F)c1csc(NS(=O)(=O)C2CC2)n1 (stereo not shown) [T207] |  | > 7.00 |
| CC(C)(C(=O)Nc1ccc(-c2cncc(F)c2)cc1C(F)(F)F)c1csc(NS(=O)(=O)C2CC2)n1 [T345, 2-(2-(cyclopropanesulfonamido)thiazol-4-yl)-N-(4-(5-fluoropyridin-3-yl)-2-(trifluoromethyl)phenyl)-2-methylpropanamide] | > 7.00 |  |
| CCC(CC)(C(=O)Nc1ccc(-c2cncc(Cl)c2)cc1)c1csc(NS(=O)(=O)C2CC2)n1 [T120] |  | > 7.00 |
| CCOc1cncc(-c2ccc(NC(=O)C(OC)c3csc(NS(=O)(=O)C4CC4)n3)cc2)n1 (single isomer, unassigned) [T330, 2-(2-(cyclopropanesulfonamido)thiazol-4-yl)-N-(4-(6-ethoxypyrazin-2-yl)phenyl)-2-methoxyacetamide] | > 7.00 |  |
| COCCC(C(=O)Nc1ccc(-c2cnccn2)cn1)c1csc(NS(=O)(=O)C2CC2)n1 (stereo not shown) [T170] |  | 6.00 to 7.00 |
| CCC(C(=O)N(C)c1ccc(-c2cncc(C#N)c2)cc1)c1csc(NS(=O)(=O)C2CC2)n1 (stereo not shown) [T316] |  | 6.00 to 7.00 |
| CCC(C(=O)Nc1ccc(-c2cncc(OCC(F)(F)F)c2)cn1)c1csc(NS(=O)(=O)C2CC2)n1 (stereo not shown) [T185] |  | > 7.00 and 6.00 to 7.00 |
| CC(C)C(C(=O)Nc1ccc(-c2cccnc2)cc1)c1csc(NS(=O)(=O)C2CC2)n1 (single isomer, unassigned) [T14, 2-(2-(cyclopropanesulfonamido)thiazol-4-yl)-3-methyl-N-(4-(pyridin-3-yl)phenyl)butanamide.HCl] |  | 6.00 to 7.00 |
| CC(C)(C(=O)Nc1ccc(-c2cncc(C(F)(F)F)n2)cn1)c1csc(NS(=O)(=O)CC2CC2)n1 [T396, 2-(2-((cyclopropylmethyl)sulfonamido)thiazol-4-yl)-2-methyl-N-(5-(6-(trifluoromethyl)pyrazin-2-yl)pyridin-2-yl)propanamide] | 6.00 to 7.00 |  |

| Structure (SMILES) | pIC50 [1] | pIC50 (Table 17, 25° C.) |
| --- | --- | --- |
| CCOc1cncc(-c2ccc(NC(=O)C(OC)c3csc(NS(=O)(=O)C4CC4)n3)c(C(F)(F)F)c2)n1 (stereo not shown) [T449] | > 7.00 |  |
| CCC(C(=O)Nc1ccc(-c2cccnc2)cc1)c1csc(NS(=O)(=O)C2CC2)n1 (single isomer, unassigned) [T6, 2-(2-(cyclopropanesulfonamido)thiazol-4-yl)-N-(4-(pyridin-3-yl)phenyl)butanamide.HCl] |  | 6.00 to 7.00 |
| CC(C)(C(=O)Nc1ccc(-c2cncc(C(F)(F)F)n2)cc1F)c1csc(NS(C)(=O)=O)n1 [T391, N-(2-fluoro-4-(6-(trifluoromethyl)pyrazin-2-yl)phenyl)-2-methyl-2-(2-(methylsulfonamido)thiazol-4-yl)propanamide] | > 7.00 |  |
| NC(C(=O)Nc1ccc(-c2cncc(C(F)(F)F)n2)cc1F)c1csc(NS(=O)(=O)C2CC2)n1 (stereo not shown) [T418, 2-Amino-2-(2-(cyclopropanesulfonamido)thiazol-4-yl)-N-(2-fluoro-4-(6-(trifluoromethyl)pyrazin-2-yl)phenyl)acetamide] | 6.00 to 7.00 |  |
| CN(C)C(=O)c1cncc(-c2ccc(NC(=O)C(C)(C)c3csc(NS(=O)(=O)C4CC4)n3)cc2)n1 [T19, 6-(4-(2-(2-(cyclopropanesulfonamido)thiazol-4-yl)-2-methylpropanamido)phenyl)-N,N-dimethylpyrazine-2-carboxamide] |  | 6.00 to 7.00 |
| CCC(C(=O)Nc1ccc(-c2cccnc2)cc1)c1csc(NS(=O)(=O)C2CC2)n1 (single isomer, unassigned) [T7, 2-(2-(cyclopropanesulfonamido)thiazol-4-yl)-N-(4-(pyridin-3-yl)phenyl)butanamide.HCl] |  | > 7.00 |
| O=C(Nc1ccc(-c2cncc(Cl)c2)cc1)C1(c2csc(NS(=O)(=O)C3CC3)n2)CC1 [T373, N-(4-(5-chloropyridin-3-yl)phenyl)-1-(2-(cyclopropanesulfonamido)thiazol-4-yl)cyclopropane-1-carboxamide] | > 7.00 |  |
| CCc1cncc(-c2ccc(NC(=O)C(C)(C)c3csc(NS(=O)(=O)C4CC4)n3)c(F)c2)n1 [T356, 2-(2-(cyclopropanesulfonamido)thiazol-4-yl)-N-(4-(6-ethylpyrazin-2-yl)-2-fluorophenyl)-2-methylpropanamide] | > 7.00 |  |
| CC(C)(C(=O)Nc1ccc(-c2cccnc2)c(Cl)c1)c1csc(NS(=O)(=O)C2CC2)n1 [T153] |  | 6.00 to 7.00 |
| CCOc1cncc(-c2ccc(NC(=O)C(OC)c3csc(NS(=O)(=O)C4CC4)n3)c(OC(F)(F)F)c2)n1 (stereo not shown) [T454] | > 7.00 |  |
| CC(C)Oc1cncc(-c2ccc(NC(=O)C(C)(C)c3csc(NS(C)(=O)=O)n3)cc2)n1 [T395, N-(4-(6-isopropoxypyrazin-2-yl)phenyl)-2-methyl-2-(2-(methylsulfonamido)thiazol-4-yl)propanamide] | > 7.00 |  |
| CCOc1cncc(-c2ccc(NC(=O)C(C)(C)c3csc(NS(=O)(=O)C4CC4)n3)nc2)c1 [T337, 2-(2-(cyclopropanesulfonamido)thiazol-4-yl)-N-(5′-ethoxy-[3,3′-bipyridin]-6-yl)-2-methylpropanamide] | > 7.00 |  |
| CCC(C(=O)Nc1ccc(-c2cncc(OCC(F)(F)F)c2)cc1)c1csc(NS(=O)(=O)C2CC2)n1 (stereo not shown) [T211] |  | > 7.00 and 6.00 to 7.00 |
| Cc1c(NC(=O)C(C)(C)c2csc(NS(=O)(=O)C3CC3)n2)ccc(-c2cncc(Cl)c2)c1F [T363, N-(4-(5-chloropyridin-3-yl)-3-fluoro-2-methylphenyl)-2-(2-(cyclopropanesulfonamido)thiazol-4-yl)-2-methylpropanamide] | > 7.00 |  |
| CCC(C(=O)Nc1ccc(-c2cncc(Cl)n2)cn1)c1csc(NS(=O)(=O)C2CC2)n1 (stereo not shown) [T187] |  | > 7.00 |
| CCC(C(=O)Nc1ccc(-c2cncc(OC)n2)cn1)c1csc(NS(=O)(=O)C2CC2)n1 (stereo not shown) [T176] |  | > 7.00 |
| CCC(C(=O)Nc1ccc(-c2cncc(OCC(F)(F)F)n2)cc1)c1csc(NS(=O)(=O)C2CC2)n1 (single isomer, unassigned) [T222] |  | 6.00 to 7.00 |
| CN(C)C(C(=O)Nc1ccc(-c2cncc(C(F)(F)F)n2)cc1F)c1csc(NS(=O)(=O)C2CC2)n1 (stereo not shown) [T420, 2-(2-(Cyclopropanesulfonamido)thiazol-4-yl)-2-(dimethylamino)-N-(2-fluoro-4-(6-(trifluoromethyl)pyrazin-2-yl)phenyl)acetamide] | > 7.00 |  |
| COCCC(C(=O)Nc1ccc(-c2cncc(C(F)(F)F)n2)cc1)c1csc(NS(=O)(=O)C2CC2)n1 (stereo not shown) [T437] | > 7.00 |  |
| CCOc1cncc(-c2ccc(NC(=O)C(C)(C)c3nc(NS(=O)(=O)C4CC4)sc3C)cc2)n1 [T317] |  | 6.00 to 7.00 |
